Here are results for 19 compounds from patent publication US12103919B2, “3-(5-oxy)-1-oxoisoindolin-2-yl)piperidine-2,6-dione derivatives and uses thereof” (NOVARTIS AG, priority 2021, dated 2024).

The structures appear in SMILES notation. Where two headings read alike, the source gives them in different places.

This test has as its target T1, WIZ (Homo sapiens, UniProt O95785+Q96SW2).
T1 construct: expressed in transfected cells
Briefly: Quantification of WIZ protein levels in HiBit tag fusion protein assay (293T cells). The settings on record: for Dmax / remaining activity at 25 µM / Dmax at 25 µM: HEK-293T; for Dmax / Dmax at 25 µM: read-out: % degradation of WIZ (100 − Amax); for remaining activity at 25 µM: read-out: WIZ Amax; for DC50: WIZ HiBit assay in 293T cells, about 18 hours, 10-point 5-fold dilution, top 25 μM, read-out: WIZ AC50; for Dmax at 25 µM: 100 − Amax. The format is cell-based. On the set-up: Dmax: dose or concentration left out as unconfirmed. Summed up:
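293T cells stably carrying a single-copy HiBit-WIZ fusion were exposed to compounds for about 18 hours at 37° C., top concentration 25 μM, 10-point 5-fold series. Lysates were complemented with LgBit and luminescence was read. Amax is the DMSO-normalized, curve-fitted percentage of WIZ-HiBit remaining at 25 uM.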
For orientation: HiBiT is a short tag that completes a luciferase, so light tracks the accessible tagged protein.

The mark [1] stands for this setting: DMSO-normalized, curve-fitted percentage of WIZ-HiBit remaining at 25 uM.

T1 sequence (O95785 whole entry): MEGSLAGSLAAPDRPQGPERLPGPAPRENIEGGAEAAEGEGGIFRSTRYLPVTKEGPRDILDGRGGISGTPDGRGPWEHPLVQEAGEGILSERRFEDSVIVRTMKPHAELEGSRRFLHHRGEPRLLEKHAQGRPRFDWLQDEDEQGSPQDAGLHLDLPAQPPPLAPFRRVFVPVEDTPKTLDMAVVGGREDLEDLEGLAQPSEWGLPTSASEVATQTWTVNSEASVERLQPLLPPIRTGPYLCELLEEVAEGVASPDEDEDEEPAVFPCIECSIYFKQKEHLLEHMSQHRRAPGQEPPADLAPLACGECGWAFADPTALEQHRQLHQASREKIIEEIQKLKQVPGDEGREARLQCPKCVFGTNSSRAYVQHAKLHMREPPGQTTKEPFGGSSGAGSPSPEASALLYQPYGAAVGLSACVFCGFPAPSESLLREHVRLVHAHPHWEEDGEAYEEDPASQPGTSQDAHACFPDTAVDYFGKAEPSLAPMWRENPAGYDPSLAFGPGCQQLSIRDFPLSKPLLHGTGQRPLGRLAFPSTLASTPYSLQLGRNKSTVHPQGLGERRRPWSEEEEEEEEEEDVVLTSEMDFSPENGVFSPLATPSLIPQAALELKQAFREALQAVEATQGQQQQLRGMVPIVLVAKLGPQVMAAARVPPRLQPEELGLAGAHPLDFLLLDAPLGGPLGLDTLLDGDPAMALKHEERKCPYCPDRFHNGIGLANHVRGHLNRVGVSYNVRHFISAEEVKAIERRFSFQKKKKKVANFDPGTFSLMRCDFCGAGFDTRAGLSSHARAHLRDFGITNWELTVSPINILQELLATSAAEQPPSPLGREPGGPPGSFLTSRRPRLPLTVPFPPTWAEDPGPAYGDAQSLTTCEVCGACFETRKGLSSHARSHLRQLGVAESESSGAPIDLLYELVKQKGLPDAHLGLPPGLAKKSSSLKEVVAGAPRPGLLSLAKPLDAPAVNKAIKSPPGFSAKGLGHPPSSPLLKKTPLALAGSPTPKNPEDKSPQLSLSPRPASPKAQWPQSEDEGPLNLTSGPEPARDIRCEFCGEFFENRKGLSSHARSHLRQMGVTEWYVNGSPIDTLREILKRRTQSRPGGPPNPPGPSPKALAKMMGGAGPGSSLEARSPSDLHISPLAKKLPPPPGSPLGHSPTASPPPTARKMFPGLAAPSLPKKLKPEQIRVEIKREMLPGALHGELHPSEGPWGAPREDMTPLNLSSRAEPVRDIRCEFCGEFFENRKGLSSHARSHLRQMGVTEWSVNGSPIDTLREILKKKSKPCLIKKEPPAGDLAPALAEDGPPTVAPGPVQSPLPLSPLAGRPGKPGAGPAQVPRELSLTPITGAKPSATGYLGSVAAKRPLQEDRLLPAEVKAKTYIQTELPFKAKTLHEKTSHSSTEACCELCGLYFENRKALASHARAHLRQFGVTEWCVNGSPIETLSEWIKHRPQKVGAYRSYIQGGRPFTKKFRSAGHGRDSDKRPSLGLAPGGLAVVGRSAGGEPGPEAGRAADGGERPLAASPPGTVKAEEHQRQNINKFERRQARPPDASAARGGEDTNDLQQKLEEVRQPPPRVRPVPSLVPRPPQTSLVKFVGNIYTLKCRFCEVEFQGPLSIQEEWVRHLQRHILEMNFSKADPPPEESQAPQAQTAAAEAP
T1 sequence (Q96SW2 whole entry): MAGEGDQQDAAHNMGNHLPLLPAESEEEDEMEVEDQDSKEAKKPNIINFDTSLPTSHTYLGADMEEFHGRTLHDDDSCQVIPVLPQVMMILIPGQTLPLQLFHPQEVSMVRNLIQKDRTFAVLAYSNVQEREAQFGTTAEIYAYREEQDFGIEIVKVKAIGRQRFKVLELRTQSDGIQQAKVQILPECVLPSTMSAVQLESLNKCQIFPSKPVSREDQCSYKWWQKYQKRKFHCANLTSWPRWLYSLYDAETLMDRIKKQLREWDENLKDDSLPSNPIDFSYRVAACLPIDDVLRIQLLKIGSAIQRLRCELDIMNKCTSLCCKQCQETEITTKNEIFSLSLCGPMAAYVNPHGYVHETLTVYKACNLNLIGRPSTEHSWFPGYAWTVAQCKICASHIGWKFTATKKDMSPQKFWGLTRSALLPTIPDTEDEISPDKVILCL
T1 sequence (Q16531 whole entry partner): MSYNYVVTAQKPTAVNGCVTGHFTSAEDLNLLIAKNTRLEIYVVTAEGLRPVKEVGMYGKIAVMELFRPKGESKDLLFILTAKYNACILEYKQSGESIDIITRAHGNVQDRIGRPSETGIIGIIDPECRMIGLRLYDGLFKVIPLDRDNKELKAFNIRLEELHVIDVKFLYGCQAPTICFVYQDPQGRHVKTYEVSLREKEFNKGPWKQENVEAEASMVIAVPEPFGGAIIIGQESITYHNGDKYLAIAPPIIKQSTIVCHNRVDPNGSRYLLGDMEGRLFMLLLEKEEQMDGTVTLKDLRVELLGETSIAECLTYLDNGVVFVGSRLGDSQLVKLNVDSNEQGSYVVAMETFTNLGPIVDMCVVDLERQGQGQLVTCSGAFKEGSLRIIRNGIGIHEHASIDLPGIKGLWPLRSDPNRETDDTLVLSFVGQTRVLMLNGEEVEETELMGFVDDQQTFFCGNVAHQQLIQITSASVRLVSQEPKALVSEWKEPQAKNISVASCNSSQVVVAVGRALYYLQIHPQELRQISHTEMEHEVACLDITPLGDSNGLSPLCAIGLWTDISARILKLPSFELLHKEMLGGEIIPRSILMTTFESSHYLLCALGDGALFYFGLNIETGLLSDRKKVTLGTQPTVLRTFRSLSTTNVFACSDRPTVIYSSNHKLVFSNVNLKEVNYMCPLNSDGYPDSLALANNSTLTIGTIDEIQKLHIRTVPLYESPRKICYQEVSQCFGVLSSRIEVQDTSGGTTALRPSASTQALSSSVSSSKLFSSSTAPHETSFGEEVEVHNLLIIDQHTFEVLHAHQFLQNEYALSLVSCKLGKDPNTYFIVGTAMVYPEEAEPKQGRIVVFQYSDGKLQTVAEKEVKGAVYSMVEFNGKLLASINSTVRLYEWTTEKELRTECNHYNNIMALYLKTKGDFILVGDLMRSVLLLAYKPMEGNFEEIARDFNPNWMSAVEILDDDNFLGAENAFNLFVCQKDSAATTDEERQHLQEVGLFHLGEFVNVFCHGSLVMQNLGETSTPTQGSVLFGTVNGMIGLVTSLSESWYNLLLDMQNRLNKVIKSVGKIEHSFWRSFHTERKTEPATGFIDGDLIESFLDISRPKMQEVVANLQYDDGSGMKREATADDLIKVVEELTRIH

Take `CCN1C[C@@H](F)C[C@@H](Oc2ccc3c(c2)CN(C2CCC(=O)NC2=O)C3=O)C1` (stereo partly drawn) [Example 59, 3-(5-(((3R,5S)-1-ethyl-5-fluoropiperidin-3-yl)oxy)-1-oxoisoindolin-2-yl)piperidine-2,6-dione]: the Dmax was 64.4%, the remaining activity at 25 µM worked out at 35.6% and the DC50 is 2.6 nM.
As for `CCN1C[C@H](F)C[C@@H](Oc2ccc3c(c2)CN(C2CCC(=O)NC2=O)C3=O)C1` (stereo partly drawn) [Example 60, 3-(5-(((3R,5R)-1-ethyl-5-fluoropiperidin-3-yl)oxy)-1-oxoisoindolin-2-yl)piperidine-2,6-dione], the Dmax worked out at 37%, the remaining activity at 25 µM turned out to be 63% and the DC50 came out at 78 nM.
The like results for `CCO[C@@H]1C[C@@H](Oc2ccc3c(c2)CN(C2CCC(=O)NC2=O)C3=O)CN(CC)C1` (stereo partly drawn) [Example 63, 3-(5-(((3R,5R)-5-ethoxy-1-ethylpiperidin-3-yl)oxy)-1-oxoisoindolin-2-yl)piperidine-2,6-dione] were, in that order, 79.5%, 20.5% and 0.12 nM.
The corresponding values for `CCN1C[C@H](OC)C[C@@H](Oc2ccc3c(c2)CN(C2CCC(=O)NC2=O)C3=O)C1` (stereo partly drawn) [Example 64, 3-(5-(((3R,5R)-1-ethyl-5-methoxypiperidin-3-yl)oxy)-1-oxoisoindolin-2-yl)piperidine-2,6-dione] are 79.5%, 20.6% and 6.3 nM.
On to `CCN1C[C@H](O)C[C@@H](Oc2ccc3c(c2)CN(C2CCC(=O)NC2=O)C3=O)C1` (stereo partly drawn) [Example 66, 3-(5-(((3R,5R)-1-ethyl-5-hydroxypiperidin-3-yl)oxy)-1-oxoisoindolin-2-yl)piperidine-2,6-dione], for which the Dmax at 25 µM worked out at 80.1% and the DC50 amounted to 33.3 nM. For the same compound, the remaining activity at 25 µM under setting [1] is 19.9%.
The like results for `CC(C)N1C[C@H](O)C[C@@H](Oc2ccc3c(c2)CN(C2CCC(=O)NC2=O)C3=O)C1` (stereo partly drawn) [Example 67, 3-(5-(((3R,5R)-5-hydroxy-1-isopropylpiperidin-3-yl)oxy)-1-oxoisoindolin-2-yl)piperidine-2,6-dione] were, in that order, 83.1%, 11.2 nM and 16.9%.
Take `CCO[C@@H]1C[C@@H](Oc2ccc3c(c2)CN(C2CCC(=O)NC2=O)C3=O)CN(C(=O)NC)C1` (stereo partly drawn) [Example 68, (3R,5R)-3-((2-(2,6-dioxopiperidin-3-yl)-1-oxoisoindolin-5-yl)oxy)-5-ethoxy-N-methylpiperidine-1-carboxamide]: the DC50 is above 25000 nM. Under setting [1], the remaining activity at 25 µM worked out at 105%.
Turning to `CCOC(=O)N1C[C@H](OCC)C[C@@H](Oc2ccc3c(c2)CN(C2CCC(=O)NC2=O)C3=O)C1` (stereo partly drawn) [Example 69, ethyl (3R,5R)-3-((2-(2,6-dioxopiperidin-3-yl)-1-oxoisoindolin-5-yl)oxy)-5-ethoxypiperidine-1-carboxylate], the DC50 was above 25000 nM. The remaining activity at 25 µM under setting [1] turned out to be 106%.
The corresponding values for `CCO[C@@H]1C[C@@H](Oc2ccc3c(c2)CN(C2CCC(=O)NC2=O)C3=O)CN(C(C)=O)C1` (stereo partly drawn) [Example 70, 3-(5-(((3R,5R)-1-acetyl-5-ethoxypiperidin-3-yl)oxy)-1-oxoisoindolin-2-yl)piperidine-2,6-dione] are above 25000 nM and 107%.
On to `CCO[C@@H]1C[C@@H](Oc2ccc3c(c2)CN(C2CCC(=O)NC2=O)C3=O)CN(S(C)(=O)=O)C1` (stereo partly drawn) [Example 71, 3-(5-(((3R,5R)-5-ethoxy-1-(methylsulfonyl)piperidin-3-yl)oxy)-1-oxoisoindolin-2-yl)piperidine-2,6-dione], for which the Dmax at 25 µM worked out at 61% and the DC50 worked out at 45.3 nM. Moreover, the remaining activity at 25 µM under setting [1] turned out to be 39%.
The like results for `CCO[C@@H]1C[C@@H](Oc2ccc3c(c2)CN(C2CCC(=O)NC2=O)C3=O)CN(CC(C)C)C1` (stereo partly drawn) [Example 72, 3-(5-(((3R,5R)-5-ethoxy-1-isobutylpiperidin-3-yl)oxy)-1-oxoisoindolin-2-yl)piperidine-2,6-dione] were, in that order, 59.9%, 41.5 nM and 40.1%.
Turning to `CCO[C@@H]1C[C@@H](Oc2ccc3c(c2)CN(C2CCC(=O)NC2=O)C3=O)CN(C2CCC2)C1` (stereo partly drawn) [Example 73, 3-(5-(((3R,5R)-1-cyclobutyl-5-ethoxypiperidin-3-yl)oxy)-1-oxoisoindolin-2-yl)piperidine-2,6-dione], the Dmax was 62.8%, the remaining activity at 25 µM is 37.2% and the DC50 turned out to be 23.8 nM.
With `CCO[C@@H]1C[C@@H](Oc2ccc3c(c2)CN(C2CCC(=O)NC2=O)C3=O)CN(C(C)C)C1` (stereo partly drawn) [Example 74, 3-(5-(((3R,5R)-5-ethoxy-1-isopropylpiperidin-3-yl)oxy)-1-oxoisoindolin-2-yl)piperidine-2,6-dione], the Dmax at 25 µM was determined as 78.1% and the DC50 was 8.9 nM. Further, the remaining activity at 25 µM under setting [1] came out at 21.9%.
Regarding `C[C@@H]1C[C@@H](Oc2ccc3c(c2)CN(C2CCC(=O)NC2=O)C3=O)CN(C)C1` (stereo partly drawn) [Example 75-2, 3-(5-(((3R,5R)-1,5-dimethylpiperidin-3-yl)oxy)-1-oxoisoindolin-2-yl)piperidine-2,6-dione], the Dmax turned out to be 83.5%, the remaining activity at 25 µM was found to be 16.5% and the DC50 amounted to 4 nM.
For the compound `CC(C)N1C[C@H](C)C[C@@H](Oc2ccc3c(c2)CN(C2CCC(=O)NC2=O)C3=O)C1` (stereo partly drawn) [Example 77, 3-(5-(((3R,5R)-1-isopropyl-5-methylpiperidin-3-yl)oxy)-1-oxoisoindolin-2-yl)piperidine-2,6-dione], the Dmax at 25 µM is 86.5% and the DC50 was found to be 1.1 nM. Besides, the remaining activity at 25 µM under setting [1] was found to be 13.6%.
Regarding `C[C@@H]1C[C@@H](Oc2ccc3c(c2)CN(C2CCC(=O)NC2=O)C3=O)CN(C2CCC2)C1` (stereo partly drawn) [Example 78, 3-(5-(((3R,5R)-1-cyclobutyl-5-methylpiperidin-3-yl)oxy)-1-oxoisoindolin-2-yl)piperidine-2,6-dione], the Dmax came to 85.7%, the remaining activity at 25 µM turned out to be 14.3% and the DC50 was 0.5 nM.
For `CC(C)CN1C[C@H](C)C[C@@H](Oc2ccc3c(c2)CN(C2CCC(=O)NC2=O)C3=O)C1` (stereo partly drawn) [Example 79, 3-(5-(((3R,5R)-1-isobutyl-5-methylpiperidin-3-yl)oxy)-1-oxoisoindolin-2-yl)piperidine-2,6-dione], the Dmax at 25 µM is 82.7% and the DC50 is 1.7 nM. In addition, the remaining activity at 25 µM under setting [1] stood at 17.3%.
Turning to `C[C@@H]1C[C@@H](Oc2ccc3c(c2)CN(C2CCC(=O)NC2=O)C3=O)CN(S(C)(=O)=O)C1` (stereo partly drawn) [Example 80, 3-(5-(((3R,5R)-5-methyl-1-(methylsulfonyl)piperidin-3-yl)oxy)-1-oxoisoindolin-2-yl)piperidine-2,6-dione], the Dmax at 25 µM came out at 71.4% and the DC50 is 23.4 nM. Further, the remaining activity at 25 µM under setting [1] was determined as 28.6%.
Take `CC(C)N1C[C@H](Oc2ccc3c(c2)CN(C2CCC(=O)NC2=O)C3=O)CC[C@@H]1C` (stereo partly drawn) [Example 81, 3-(5-(((3R,6S)-1-isopropyl-6-methylpiperidin-3-yl)oxy)-1-oxoisoindolin-2-yl)piperidine-2,6-dione]: the Dmax at 25 µM came out at 89.3% and the DC50 was 2 nM. Moreover, the remaining activity at 25 µM under setting [1] came out at 10.7%.
